Results published in patent US11707464B2, “Methods of treating heavy menstrual bleeding” (AbbVie Inc., priority 2013, dated 2023).

System: premenopausal women with uterine fibroids and heavy menstrual bleeding
Assay: Phase 2a uterine fibroid trial: menstrual blood loss by alkaline hematin (AH) method
Assay type: in vivo, human
Details: for percent of subjects who achieved the composite bleeding endpoint (MBL <80 mL at Final Month and ≥50% reduction in MBL from baseline): last 28 days of treatment, AH method, placebo 30%; for Average Total Blood Loss Measured by AH Method During Treatment: 3 months of treatment; for Average Blood Loss Per Cycle Measured by AH Method in Screening: screening (baseline before treatment)
Experimental: Methods for analyzing menstrual blood loss are known in the art and include, for example, the alkaline hematin method. The alkaline hematin method is based on the quantitation of menstrual blood collected on sanitary products (Hallberg L., Nilsoon L., Determination of Menstrual Blood Loss. Scand. J. Clin. Lab. Invest., 1964; 16:244-248). The method uses a strong alkaline solution to chemically convert the heme from bloodstained sanitary products to alkaline hematin, which is measured colorimetrically. When compared to a subject's serum hemoglobin (Hgb), the volume of blood loss in the menstrual products can be determined.
This example is a Phase 2a, multicenter, double-blind, placebo-controlled, randomized trial (N=280) with a 3-month treatment duration evaluating the safety and efficacy of Elagolix administered with or without Activella® in premenopausal women with uterine fibroids.
It evaluates the safety and efficacy of […] of Elagolix (100 mg BID, 200 mg BID, 200 mg BID plus low dose Activella® (a combination of 0.5 mg estradiol and 0.1 mg northindrone acetate), 300 mg BID, 300 mg BID plus 1.0 mg of Estrace and 200 mg cyclical Prometrium (collectively referred to as “EP”), 400 mg QD and 600 QD) versus placebo (PBO) to reduce uterine bleeding associated with uterine fibroids and to reduce fibroid volume and uterine volume in premenopausal women 20 to 49 years of age with heavy menstrual bleeding (HMB; >80 mL blood loss per menstrual cycle). The study involved the following six (6) cohorts:
There are a number of efficacy endpoints, but a composite endpoint consisting of two bleeding assessments was used to assess one measure of efficacy. It included the percent of subjects who achieved a menstrual blood loss (MBL) volume of <80 mL at the Final Month (last 28 days of treatment), and also achieved a ≥50% reduction in MBL volume from baseline to the Final Month (last 28 days of treatment) as measured by the Alkaline Hematin (AH) method. Eighty-five percent (85%), 97%, and 30% of subjects achieved the composite bleeding assessment endpoint in the 200 mg BID, 300 mg BID, and placebo groups, respectively (P<0.05 for 200 mg BID versus placebo in cohort 1, and 300 mg BID versus placebo in cohort 2). Eighty-two percent (82%) of subjects in the 200 mg BID+low-dose Activella® (low dose Activella® is a combination of (a combination of 0.5 mg estradiol and 0.1 mg norethindrone acetate) group achieved this composite endpoint. With respect to fibroid and uterine volumes, 63%, 55%, and 29% of subjects achieved a ≥25% reduction in fibroid volume and 50%, 68%, and 9% achieved a ≥25% reduction in uterine volume in the 200 mg BID, 300 mg BID, and placebo groups, respectively. In the 200 mg BID+low dose group, 53% and 42% of subjects achieved a ≥25% reduction in fibroid and uterine volume, respectively. Quality of life (QoL) measures were also determined using the “Responsiveness of the uterine fibroid symptom and health-related quality of life questionnaire” (UFS-QOL) (Harding, Gale, Coyne Karin S., Thompson Christine L., Spies James B, United BioSource Corporation, 7101 Wisconsin Avenue, Suite 600, Bethesda, Md., 20814, USA, Health and Quality Life Outcomes, 2008, 6, page 99).

## COc1cccc(-c2c(C)n(Cc3c(F)cccc3C(F)(F)F)c(=O)n(C[C@H](NCCCC(=O)O)c3ccccc3)c2=O)c1F [Elagolix, 4-((R)-2-[5-(2-fluoro-3-methoxy-phenyl)-3-(2-fluoro-6-trifluoromethyl-benzyl)-4-methyl-2,6-dioxo-3,6-dihydro-2H-pyrimidin-1-yl]-1-phenyl-ethylamino)-butyric acid]
200 mg BID
  percent of subjects who achieved the composite bleeding endpoint (MBL <80 mL at Final Month and ≥50% reduction in MBL from baseline): 85%
300 mg BID without add-back therapy, most of women achieved amenorrhea
  inhibition of bleeding: maximum inhibition of bleeding
300 mg BID
  percent of subjects who achieved the composite bleeding endpoint (MBL <80 mL at Final Month and ≥50% reduction in MBL from baseline): 97%
400 mg QD, compared with 300 mg BID
  inhibition of bleeding: slightly less effective
600 mg QD, compared with 300 mg BID
  inhibition of bleeding: slightly less effective
Elagolix 100 BID, N = 26
  Average Total MBL from Days 36-65 Post-Baseline: 100.9 mL
  Average Total MBL in Days 66-95 Post-Baseline: 65.4 mL
  Average total MBL from days 6-35 post-baseline: 33.2 mL
  Average Total Blood Loss Measured by AH Method During Treatment: 198.4 mL
Elagolix 200 BID, N = 28
  Average Total MBL from Days 36-65 Post-Baseline: 5.5 mL
  Average Total MBL in Days 66-95 Post-Baseline: 41.5 mL
  Average total MBL from days 6-35 post-baseline: 0 mL
  Average Total Blood Loss Measured by AH Method During Treatment: 47.0 mL
Elagolix 300 BID, N = 26
  Average Total MBL from Days 36-65 Post-Baseline: 0 mL
  Average Total MBL in Days 66-95 Post-Baseline: 4.3 mL
  Average total MBL from days 6-35 post-baseline: 0 mL
  Average Total Blood Loss Measured by AH Method During Treatment: 4.3 mL
Elagolix 400 QD, N = 26
  Average Total MBL from Days 36-65 Post-Baseline: 12.4 mL
  Average Total MBL in Days 66-95 Post-Baseline: 21.6 mL
  Average total MBL from days 6-35 post-baseline: 14.9 mL
  Average Total Blood Loss Measured by AH Method During Treatment: 38.4 mL
Elagolix 600 QD, N = 24
  Average Total MBL from Days 36-65 Post-Baseline: 35.0 mL
  Average Total MBL in Days 66-95 Post-Baseline: 14.9 mL
  Average total MBL from days 6-35 post-baseline: 27.6 mL
  Average Total Blood Loss Measured by AH Method During Treatment: 69.6 mL
Group Elagolix 100 BID, N = 26
  Average Blood Loss Per Cycle Measured by AH Method in Screening: 276.4 mL
Group Elagolix 200 BID, N = 28
  Average Blood Loss Per Cycle Measured by AH Method in Screening: 287.4 mL
Group Elagolix 300 BID, N = 26
  Average Blood Loss Per Cycle Measured by AH Method in Screening: 224.8 mL
Group Elagolix 400 QD, N = 26
  Average Blood Loss Per Cycle Measured by AH Method in Screening: 220.3 mL
Group Elagolix 600 QD, N = 24
  Average Blood Loss Per Cycle Measured by AH Method in Screening: 228.7 mL
